Target: T1, Prostaglandin E synthase (Homo sapiens, UniProt O14684)
T1 sequence (O14684 whole entry): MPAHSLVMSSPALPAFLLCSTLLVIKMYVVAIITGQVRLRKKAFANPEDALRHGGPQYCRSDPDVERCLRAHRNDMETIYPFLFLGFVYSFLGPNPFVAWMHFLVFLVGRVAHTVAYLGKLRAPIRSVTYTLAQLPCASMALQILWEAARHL
Experiment: Inhibition of human mPGES1 expressed in HEK293 microsomes assessed as reduction in PGE2 production using PGH2 as substrate after 2.5 mins by LC-MS analysis
Conditions: not given; call rule not given here

Row | Structure (SMILES) | IC50 [µM]
1 | O=C(O)c1ccc(Cl)cc1NC[C@@H]1CCC[C@@H]1NC(=O)C1CCN(c2ccccc2)CC1 | 0.002
2 | Cc1cccc2ccc(N3CCC(C(=O)N[C@H]4CCC[C@H]4CCc4ccccc4C(=O)O)CC3)nc12 | 0.001
3 | O=C(O)c1ccccc1CC[C@@H]1CCC[C@@H]1NC(=O)C1CCN(c2ccc(C(F)(F)F)cc2)CC1 | 0.002

Target: T2, Prostaglandin E synthase (Homo sapiens) (UniProt O14684)
T2 sequence (whole entry): T1 sequence (O14684 whole entry)
Experiment: (§1) Inhibition of mPGES1 in human whole blood assessed as reduction in LPS-induced PGE2 production preincubated for 30 mins followed by LPS addition measured after 20 to 24 hrs by LC-MS analysis
Conditions: not given

Row | Structure (SMILES) | IC80 [µM]
4 | O=C(O)c1ccc(Cl)cc1NC[C@@H]1CCC[C@@H]1NC(=O)C1CCN(c2ccccc2)CC1 | 1.37
5 | Cc1cccc2ccc(N3CCC(C(=O)N[C@H]4CCC[C@H]4CCc4ccccc4C(=O)O)CC3)nc12 | 0.024
6 | O=C(O)c1ccccc1CC[C@@H]1CCC[C@@H]1NC(=O)C1CCN(c2ccc(C(F)(F)F)cc2)CC1 | 0.04

Target: T1, Prostaglandin E synthase
Experiment: as §1
Conditions: not given

Row | Structure (SMILES) | IC50 [µM]
7 | O=C(O)c1ccc(Cl)cc1NC[C@@H]1CCC[C@@H]1NC(=O)C1CCN(c2ccccc2)CC1 | 0.081
8 | Cc1cccc2ccc(N3CCC(C(=O)N[C@H]4CCC[C@H]4CCc4ccccc4C(=O)O)CC3)nc12 | 0.006
9 | O=C(O)c1ccccc1CC[C@@H]1CCC[C@@H]1NC(=O)C1CCN(c2ccc(C(F)(F)F)cc2)CC1 | 0.005

Target: T3, Prostaglandin G/H synthase 1 (Homo sapiens, UniProt P23219)
T3 sequence (P23219 whole entry): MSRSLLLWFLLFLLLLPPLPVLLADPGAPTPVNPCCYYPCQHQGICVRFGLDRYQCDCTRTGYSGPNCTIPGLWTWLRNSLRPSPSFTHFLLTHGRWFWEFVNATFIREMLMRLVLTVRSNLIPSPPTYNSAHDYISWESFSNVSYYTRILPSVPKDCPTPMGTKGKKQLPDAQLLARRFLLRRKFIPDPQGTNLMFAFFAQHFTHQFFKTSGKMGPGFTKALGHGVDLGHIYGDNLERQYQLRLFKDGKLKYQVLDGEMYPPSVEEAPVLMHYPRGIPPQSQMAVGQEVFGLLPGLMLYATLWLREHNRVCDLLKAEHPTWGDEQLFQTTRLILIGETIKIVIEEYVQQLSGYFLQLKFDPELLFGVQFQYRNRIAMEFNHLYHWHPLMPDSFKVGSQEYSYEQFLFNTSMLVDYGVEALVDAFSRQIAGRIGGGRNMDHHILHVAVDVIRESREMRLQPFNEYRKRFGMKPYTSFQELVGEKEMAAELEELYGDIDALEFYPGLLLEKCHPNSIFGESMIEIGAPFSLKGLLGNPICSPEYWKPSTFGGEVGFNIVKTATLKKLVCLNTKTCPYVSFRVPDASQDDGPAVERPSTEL
Experiment: Inhibition of COX1 in human whole blood assessed as effect on LPS-induced TXB2 level preincubated for 30 mins followed by LPS addition measured after 20 to 24 hrs by LC-MS analysis
Conditions: not given

Row | Structure (SMILES) | inhibition (INH)
10 | O=C(O)c1ccc(Cl)cc1NC[C@@H]1CCC[C@@H]1NC(=O)C1CCN(c2ccccc2)CC1 | Not Active

Target: T3, Prostaglandin G/H synthase 1
Experiment: Inhibition of COX1 in human whole blood assessed as effect on LPS-induced PGF2alpha level preincubated for 30 mins followed by LPS addition measured after 20 to 24 hrs by LC-MS analysis
Conditions: not given

Row | Structure (SMILES) | inhibition (INH)
11 | O=C(O)c1ccc(Cl)cc1NC[C@@H]1CCC[C@@H]1NC(=O)C1CCN(c2ccccc2)CC1 | Not Active

Target: T1, Prostaglandin E synthase
Experiment: Inhibition of mPGES1 in human A549 cells assessed as reduction in IL-1beta-induced PGE2 production preincubated for 30 mins followed by IL-1beta addition measured after 18 hrs by enzyme immunoassay
Type: cell-based
Conditions: not given

Row | Structure (SMILES) | IC50 [µM]
12 | O=C(O)c1ccc(Cl)cc1NC[C@@H]1CCC[C@@H]1NC(=O)C1CCN(c2ccccc2)CC1 | 0.021

Target: T4, Prostaglandin G/H synthase 2 (Homo sapiens, UniProt P35354)
T4 sequence (P35354 whole entry): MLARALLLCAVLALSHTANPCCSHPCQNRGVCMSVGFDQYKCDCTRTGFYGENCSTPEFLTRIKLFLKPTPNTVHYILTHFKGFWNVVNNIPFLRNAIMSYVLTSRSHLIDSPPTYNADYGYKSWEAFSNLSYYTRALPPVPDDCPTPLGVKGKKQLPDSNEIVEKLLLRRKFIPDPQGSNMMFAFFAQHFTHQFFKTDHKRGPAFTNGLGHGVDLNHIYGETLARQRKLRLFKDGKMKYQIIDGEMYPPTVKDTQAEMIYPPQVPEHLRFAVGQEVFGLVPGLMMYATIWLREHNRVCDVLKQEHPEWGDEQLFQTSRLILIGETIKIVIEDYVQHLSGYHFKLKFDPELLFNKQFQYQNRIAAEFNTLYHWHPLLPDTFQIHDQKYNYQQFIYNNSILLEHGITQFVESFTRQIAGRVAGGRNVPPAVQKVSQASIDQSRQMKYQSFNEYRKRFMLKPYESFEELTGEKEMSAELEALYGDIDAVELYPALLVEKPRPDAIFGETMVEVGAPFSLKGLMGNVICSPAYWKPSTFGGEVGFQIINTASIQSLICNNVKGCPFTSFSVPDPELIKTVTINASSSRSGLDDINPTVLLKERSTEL
Experiment: Inhibition of COX2 in human A549 cells assessed as reduction in IL-1beta-induced PGI2 production preincubated for 30 mins followed by IL-1beta addition measured after 18 hrs by enzyme immunoassay
Type: cell-based
Conditions: a549, 18 h

Row | Structure (SMILES) | inhibition (INH)
13 | O=C(O)c1ccc(Cl)cc1NC[C@@H]1CCC[C@@H]1NC(=O)C1CCN(c2ccccc2)CC1 | Not Active

Tested on: not listed separately
Experiment: Clearance in rat at 1 mg/kg, iv
Type: ADME, organism-based
Conditions: in vivo

Row | Structure (SMILES) | clearance [L/h/kg]
14 | O=C(O)c1ccc(Cl)cc1NC[C@@H]1CCC[C@@H]1NC(=O)C1CCN(c2ccccc2)CC1 | 4.86
15 | Cc1cccc2ccc(N3CCC(C(=O)N[C@H]4CCC[C@H]4CCc4ccccc4C(=O)O)CC3)nc12 | 1.86
16 | O=C(O)c1ccccc1CC[C@@H]1CCC[C@@H]1NC(=O)C1CCN(c2ccc(C(F)(F)F)cc2)CC1 | 0.3

Target: CYP2C9 (Homo sapiens, UniProt P11712)
Sequence (P11712 whole entry): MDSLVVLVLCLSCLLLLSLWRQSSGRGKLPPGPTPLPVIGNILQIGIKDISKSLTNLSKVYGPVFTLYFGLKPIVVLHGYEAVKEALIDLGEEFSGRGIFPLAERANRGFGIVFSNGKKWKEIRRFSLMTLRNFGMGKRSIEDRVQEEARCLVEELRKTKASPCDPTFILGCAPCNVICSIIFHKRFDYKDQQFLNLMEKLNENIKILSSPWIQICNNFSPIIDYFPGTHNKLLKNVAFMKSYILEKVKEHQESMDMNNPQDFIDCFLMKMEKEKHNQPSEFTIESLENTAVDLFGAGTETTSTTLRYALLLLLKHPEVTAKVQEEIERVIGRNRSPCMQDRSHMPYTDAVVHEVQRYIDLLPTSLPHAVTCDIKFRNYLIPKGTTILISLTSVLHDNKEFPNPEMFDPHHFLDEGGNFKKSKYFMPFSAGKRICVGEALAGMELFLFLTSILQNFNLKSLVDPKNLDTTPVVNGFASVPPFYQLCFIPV
Experiment: Inhibition of CYP2C9 (unknown origin) in microsomes at 10 uM relative to control
Type: ADME
Conditions: not given

Row | Structure (SMILES) | inhibition at 10 µM [%]
17 | O=C(O)c1ccc(Cl)cc1NC[C@@H]1CCC[C@@H]1NC(=O)C1CCN(c2ccccc2)CC1 | 46
18 | Cc1cccc2ccc(N3CCC(C(=O)N[C@H]4CCC[C@H]4CCc4ccccc4C(=O)O)CC3)nc12 | 14
19 | O=C(O)c1ccccc1CC[C@@H]1CCC[C@@H]1NC(=O)C1CCN(c2ccc(C(F)(F)F)cc2)CC1 | 5

Target: T4, Prostaglandin G/H synthase 2
Experiment: Inhibition of COX2 in human A549 cells assessed as reduction in IL-1beta-induced PGI2 production up to 10 uM preincubated for 30 mins followed by IL-1beta addition measured after 18 hrs by enzyme immunoassay
Type: cell-based
Conditions: a549, 18 h

Row | Structure (SMILES) | inhibition (INH)
20 | Cc1cccc2ccc(N3CCC(C(=O)N[C@H]4CCC[C@H]4CCc4ccccc4C(=O)O)CC3)nc12 | Not Active

Target: T3, Prostaglandin G/H synthase 1
Experiment: Inhibition of COX1 in human whole blood assessed as effect on LPS-induced TXB2 level up to 10 uM preincubated for 30 mins followed by LPS addition measured after 20 to 24 hrs by LC-MS analysis
Conditions: not given

Row | Structure (SMILES) | inhibition (INH)
21 | Cc1cccc2ccc(N3CCC(C(=O)N[C@H]4CCC[C@H]4CCc4ccccc4C(=O)O)CC3)nc12 | Not Active

Target: T3, Prostaglandin G/H synthase 1
Experiment: Inhibition of COX1 in human whole blood assessed as effect on LPS-induced PGF2alpha level up to 10 uM preincubated for 30 mins followed by LPS addition measured after 20 to 24 hrs by LC-MS analysis
Conditions: not given

Row | Structure (SMILES) | inhibition (INH)
22 | Cc1cccc2ccc(N3CCC(C(=O)N[C@H]4CCC[C@H]4CCc4ccccc4C(=O)O)CC3)nc12 | Not Active

Target: T5, Prostaglandin G/H synthase 1 (Ovis aries, UniProt P05979)
T5 sequence (P05979 whole entry): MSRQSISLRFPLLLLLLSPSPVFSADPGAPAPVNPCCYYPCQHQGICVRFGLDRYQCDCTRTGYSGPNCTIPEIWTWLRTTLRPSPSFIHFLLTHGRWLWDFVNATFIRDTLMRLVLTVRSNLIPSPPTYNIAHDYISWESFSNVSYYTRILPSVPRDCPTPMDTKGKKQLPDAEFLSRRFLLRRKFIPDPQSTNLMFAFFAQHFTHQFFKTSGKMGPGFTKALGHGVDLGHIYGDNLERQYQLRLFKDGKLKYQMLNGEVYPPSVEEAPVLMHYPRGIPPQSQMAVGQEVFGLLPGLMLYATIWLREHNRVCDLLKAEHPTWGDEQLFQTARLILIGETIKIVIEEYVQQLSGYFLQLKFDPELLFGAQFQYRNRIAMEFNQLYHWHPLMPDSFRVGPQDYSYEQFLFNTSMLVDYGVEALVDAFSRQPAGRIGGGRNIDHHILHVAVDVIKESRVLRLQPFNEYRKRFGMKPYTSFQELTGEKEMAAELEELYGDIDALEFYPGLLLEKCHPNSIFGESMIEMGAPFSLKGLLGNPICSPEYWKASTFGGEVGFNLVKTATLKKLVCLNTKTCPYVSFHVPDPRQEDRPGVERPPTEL
Experiment: Inhibition of ovine COX1 assessed as reduction in PGF2alpha production at 10 uM using arachidonic acid as substrate by colorimetric method
Conditions: sheep

Row | Structure (SMILES) | inhibition (INH)
23 | Cc1cccc2ccc(N3CCC(C(=O)N[C@H]4CCC[C@H]4CCc4ccccc4C(=O)O)CC3)nc12 | Not Active

Target: T4, Prostaglandin G/H synthase 2
Experiment: Inhibition of human COX2 assessed as reduction in PGF2alpha production at 10 uM using arachidonic acid as substrate by colorimetric method
Conditions: not given

Row | Structure (SMILES) | inhibition (INH)
24 | Cc1cccc2ccc(N3CCC(C(=O)N[C@H]4CCC[C@H]4CCc4ccccc4C(=O)O)CC3)nc12 | Not Active

Tested on: not listed separately
Experiment: Selectivity index, ratio of compound effect for inhibition of human mPGES1 expressed in HEK293 microsomes to compound effect for inhibition of ovine COX1
Conditions: not given

Row | Structure (SMILES) | Selectivity Index
25 | Cc1cccc2ccc(N3CCC(C(=O)N[C@H]4CCC[C@H]4CCc4ccccc4C(=O)O)CC3)nc12 | > 10000

Species: Homo sapiens
Experiment: Selectivity index, ratio of compound effect for inhibition of human mPGES1 expressed in HEK293 microsomes to compound effect for inhibition of human COX2
Conditions: not given

Row | Structure (SMILES) | Selectivity Index
26 | Cc1cccc2ccc(N3CCC(C(=O)N[C@H]4CCC[C@H]4CCc4ccccc4C(=O)O)CC3)nc12 | > 10000

Target: Voltage-gated inwardly rectifying potassium channel KCNH2 (Homo sapiens, UniProt Q12809)
Sequence (Q12809 whole entry): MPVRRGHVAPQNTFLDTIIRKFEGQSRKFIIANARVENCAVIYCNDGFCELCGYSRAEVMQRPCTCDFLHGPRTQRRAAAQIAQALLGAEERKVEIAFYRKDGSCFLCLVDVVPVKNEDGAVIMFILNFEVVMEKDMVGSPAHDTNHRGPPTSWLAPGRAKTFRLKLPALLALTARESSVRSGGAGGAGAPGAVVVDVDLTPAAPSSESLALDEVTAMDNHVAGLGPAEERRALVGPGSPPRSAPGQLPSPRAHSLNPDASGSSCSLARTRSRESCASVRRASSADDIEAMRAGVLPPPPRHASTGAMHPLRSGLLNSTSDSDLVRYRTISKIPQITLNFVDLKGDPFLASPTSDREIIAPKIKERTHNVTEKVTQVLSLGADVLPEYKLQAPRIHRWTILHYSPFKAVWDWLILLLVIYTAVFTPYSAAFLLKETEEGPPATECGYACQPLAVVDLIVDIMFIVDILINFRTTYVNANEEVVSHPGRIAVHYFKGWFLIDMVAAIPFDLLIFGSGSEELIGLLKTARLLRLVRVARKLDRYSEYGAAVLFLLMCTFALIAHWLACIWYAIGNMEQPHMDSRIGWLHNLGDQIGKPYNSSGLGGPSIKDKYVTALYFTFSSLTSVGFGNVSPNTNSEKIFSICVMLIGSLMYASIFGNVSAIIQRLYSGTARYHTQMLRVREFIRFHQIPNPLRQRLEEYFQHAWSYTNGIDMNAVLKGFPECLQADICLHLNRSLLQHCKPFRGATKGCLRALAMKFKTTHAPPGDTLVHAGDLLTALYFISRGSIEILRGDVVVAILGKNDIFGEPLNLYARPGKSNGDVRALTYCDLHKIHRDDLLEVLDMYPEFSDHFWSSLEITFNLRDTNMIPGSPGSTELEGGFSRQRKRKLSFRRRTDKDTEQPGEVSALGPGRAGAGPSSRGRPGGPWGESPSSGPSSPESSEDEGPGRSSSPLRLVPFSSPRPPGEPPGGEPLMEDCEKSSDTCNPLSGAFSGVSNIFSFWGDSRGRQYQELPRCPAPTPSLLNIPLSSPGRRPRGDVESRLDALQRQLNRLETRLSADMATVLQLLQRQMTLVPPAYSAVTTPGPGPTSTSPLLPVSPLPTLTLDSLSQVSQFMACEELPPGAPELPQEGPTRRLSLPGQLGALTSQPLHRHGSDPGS
Experiment: Inhibition of human ERG expressed in CHO cells at 10 uM by automated patch clamp method
Type: cell-based
Conditions: not given

Row | Structure (SMILES) | inhibition (INH)
27 | Cc1cccc2ccc(N3CCC(C(=O)N[C@H]4CCC[C@H]4CCc4ccccc4C(=O)O)CC3)nc12 | Not Active

Tested on: not listed separately
Experiment: Clearance in dog at 1 mg/kg, iv
Type: ADME, organism-based, Canis lupus familiaris
Conditions: in vivo

Row | Structure (SMILES) | clearance [L/h/kg]
28 | Cc1cccc2ccc(N3CCC(C(=O)N[C@H]4CCC[C@H]4CCc4ccccc4C(=O)O)CC3)nc12 | 0.39

Tested on: not listed separately
Experiment: Volume of distribution at steady state in rat at 1 mg/kg, iv
Type: ADME, organism-based
Conditions: in vivo, read-out: Vdss

Row | Structure (SMILES) | Vd [L/kg]
29 | Cc1cccc2ccc(N3CCC(C(=O)N[C@H]4CCC[C@H]4CCc4ccccc4C(=O)O)CC3)nc12 | 4.8

Tested on: not listed separately
Experiment: Volume of distribution at steady state in dog at 1 mg/kg, iv
Type: ADME, organism-based, Canis lupus familiaris
Conditions: in vivo, read-out: Vdss

Row | Structure (SMILES) | Vd [L/kg]
30 | Cc1cccc2ccc(N3CCC(C(=O)N[C@H]4CCC[C@H]4CCc4ccccc4C(=O)O)CC3)nc12 | 1.2

Tested on: not listed separately
Experiment: Cmax in rat at 5 mg/kg, po
Type: ADME, organism-based
Design: dose 5 mg/kg, route oral
Conditions: in vivo

Row | Structure (SMILES) | Cmax [µM]
31 | Cc1cccc2ccc(N3CCC(C(=O)N[C@H]4CCC[C@H]4CCc4ccccc4C(=O)O)CC3)nc12 | 0.53

Tested on: not listed separately
Experiment: Cmax in dog at 5 mg/kg, po
Type: ADME, organism-based, Canis lupus familiaris
Design: dose 5 mg/kg, route oral
Conditions: in vivo

Row | Structure (SMILES) | Cmax [µM]
32 | Cc1cccc2ccc(N3CCC(C(=O)N[C@H]4CCC[C@H]4CCc4ccccc4C(=O)O)CC3)nc12 | 4

Tested on: not listed separately
Experiment: Oral bioavailability in rat at 5 mg/kg
Type: ADME, organism-based
Conditions: in vivo

Row | Structure (SMILES) | bioavailability [%]
33 | Cc1cccc2ccc(N3CCC(C(=O)N[C@H]4CCC[C@H]4CCc4ccccc4C(=O)O)CC3)nc12 | 52

Tested on: Rattus norvegicus
Experiment: Time at which plasma concentration stays above human whole blood IC80 level in rat at 5 mg/kg, po administered as single dose
Conditions: not given

Row | Structure (SMILES) | Time [h]
34 | Cc1cccc2ccc(N3CCC(C(=O)N[C@H]4CCC[C@H]4CCc4ccccc4C(=O)O)CC3)nc12 | >12

Tested on: Canis familiaris
Experiment: Time at which plasma concentration stays above human whole blood IC80 level in dog at 3 mg/kg, po administered as single dose
Design: species or system Canis lupus familiaris
Conditions: not given

Row | Structure (SMILES) | Time [h]
35 | Cc1cccc2ccc(N3CCC(C(=O)N[C@H]4CCC[C@H]4CCc4ccccc4C(=O)O)CC3)nc12 | 24

Tested on: not listed separately
Experiment: Oral bioavailability in dog at 3 mg/kg
Conditions: in vivo

Row | Structure (SMILES) | bioavailability [%]
36 | Cc1cccc2ccc(N3CCC(C(=O)N[C@H]4CCC[C@H]4CCc4ccccc4C(=O)O)CC3)nc12 | 68
